Test results reported in publication PMC7253177, “Gain of channel function and modified gating properties in TRPM3 mutants causing intellectual disability and epilepsy” (eLife, 2020).

Biological target: T1, WT human TRPM3 (Homo sapiens, UniProt Q9HCF6)
T1 construct: expressed in transfected cells; host or cells: HEK293T
T1 sequence (Q9HCF6 1-1325 isoform Q9HCF6-10): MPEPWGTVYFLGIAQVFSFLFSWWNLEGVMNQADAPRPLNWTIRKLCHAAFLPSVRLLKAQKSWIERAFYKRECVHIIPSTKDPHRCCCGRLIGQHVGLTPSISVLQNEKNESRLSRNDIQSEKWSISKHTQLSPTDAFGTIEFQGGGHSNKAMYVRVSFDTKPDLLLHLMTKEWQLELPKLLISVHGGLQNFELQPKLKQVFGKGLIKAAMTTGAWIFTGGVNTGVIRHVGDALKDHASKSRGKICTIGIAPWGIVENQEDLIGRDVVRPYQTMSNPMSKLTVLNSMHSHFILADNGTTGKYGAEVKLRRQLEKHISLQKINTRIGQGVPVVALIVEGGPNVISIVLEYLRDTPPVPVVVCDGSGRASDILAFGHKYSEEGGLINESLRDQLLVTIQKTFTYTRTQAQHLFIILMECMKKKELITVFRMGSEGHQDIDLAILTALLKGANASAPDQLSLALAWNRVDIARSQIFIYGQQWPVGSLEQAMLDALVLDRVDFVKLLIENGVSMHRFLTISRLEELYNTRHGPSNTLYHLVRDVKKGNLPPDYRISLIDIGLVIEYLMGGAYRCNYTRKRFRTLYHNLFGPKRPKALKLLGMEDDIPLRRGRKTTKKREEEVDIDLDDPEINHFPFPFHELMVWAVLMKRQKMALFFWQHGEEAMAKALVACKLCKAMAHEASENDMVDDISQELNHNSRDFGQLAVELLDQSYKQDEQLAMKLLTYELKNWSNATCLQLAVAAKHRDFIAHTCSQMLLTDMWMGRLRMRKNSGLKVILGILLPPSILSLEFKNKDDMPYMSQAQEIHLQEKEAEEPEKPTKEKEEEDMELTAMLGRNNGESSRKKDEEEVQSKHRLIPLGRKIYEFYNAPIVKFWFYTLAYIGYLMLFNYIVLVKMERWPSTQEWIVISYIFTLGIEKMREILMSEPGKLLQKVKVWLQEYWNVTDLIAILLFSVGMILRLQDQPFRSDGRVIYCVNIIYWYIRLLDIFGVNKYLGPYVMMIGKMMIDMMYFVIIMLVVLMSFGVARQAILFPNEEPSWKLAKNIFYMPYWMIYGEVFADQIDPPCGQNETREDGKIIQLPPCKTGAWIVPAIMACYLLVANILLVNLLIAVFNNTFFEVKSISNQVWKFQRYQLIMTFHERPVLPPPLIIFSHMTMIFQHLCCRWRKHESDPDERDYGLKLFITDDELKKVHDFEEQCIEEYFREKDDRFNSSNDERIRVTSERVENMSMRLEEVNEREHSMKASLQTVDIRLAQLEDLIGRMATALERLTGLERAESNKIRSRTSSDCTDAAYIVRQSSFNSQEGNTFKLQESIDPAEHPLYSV
Experiment: Fura-2-based calcium imaging, HEK293T cells transfected with WT hTRPM3
Assay type: cell-based
Protocol: HEK293T cells ([Graham et al., 1977]) were cultured as described previously ([Vriens et al., 2007]) and used up in passage number 14. HEK293T cells were tested for the lack of mycoplasma and transiently transfected with 2 µg of DNA using TransIT transfection reagent (Mirus) 36–48 hr before the measurements. In case of co-cultures a ratio of 1:1 between hTRPM3-YFP WT and mutants-YFP DNA was used.
Changes in intracellular calcium concentration were monitored using ratiometric Fura-2-based fluorimetry. Cells were loaded with 2 µM Fura-2-acetoxymethyl ester (Alexis Biochemicals) for 30 min at 37°C. Fluorescence was measured during alternating illumination at 340 and 380 nm using Eclipse Ti (Nikon) fluorescence microscopy system, and absolute calcium concentration was calculated from the ratio of the fluorescence signals at these two wavelengths (R = F340/F380) as [Ca^2+]=Km × (R-Rmin)/(Rmax-R), where Km, Rmin and Rmax were estimated from in vitro calibration experiments with known calcium concentrations. The bath solution contained (in mM) 138 NaCl, 5.4 KCl, 2 CaCl2, 2 MgCl2, 10 glucose, and 10 HEPES, pH 7.4. […] The chemical ligands were dissolved in bath solution from a stock diluted in DMSO.

| Molecule | Effect on basal [Ca2+]i (primidone 100 µM, isosakuranetin 50 µM) | PS concentration required to induce a detectable calcium response [µM] |
| --- | --- | --- |
| CCC1(c2ccccc2)C(=O)NCNC1=O [primidone] | reduced [Ca^2+]i |  |
| pregnenolone sulfate [PS] |  | 10 |
